DC50, binding and Kd data for three molecules are collected here from PMC8682774 (2021).

Assay [1] concerns 21CTA (DNA, G4) GGGCTAGGGCTAGGGCTAGGG
Description: G4-FID. Particulars: 100 mM KCl, 10 mM lithium cacodylate pH 7.3, thiazole orange 0.5 µM displaced.

Assay [2] concerns TERRA (RNA, G4) AGGGUUAGGGUUAGGGUUAGGG
Briefly: G4-FID. Particulars: 100 mM KCl, 10 mM lithium cacodylate pH 7.3, thiazole orange 0.5 µM displaced.

Assay [3] deals with CEB25L111T (DNA, G4) AAGGGTGGGTGGGTGGGT
Description: G4-FID. To be noted: 100 mM KCl, 10 mM lithium cacodylate pH 7.3, thiazole orange 0.5 µM displaced.

For assay [4], the system named is 22AG (DNA, G4) AGGGTTAGGGTTAGGGTTAGGG
Description: G4-FID. Particulars: 100 mM KCl, 10 mM lithium cacodylate pH 7.3, thiazole orange 0.5 µM displaced.

For assay [5], the system named is CEB25wt (DNA, G4) AAGGGTGGGTGTAAGTGTGGGTGGGT
Description: G4-FID. Particulars: 100 mM KCl, 10 mM lithium cacodylate pH 7.3, thiazole orange 0.5 µM displaced.

Assay [6] has as its system F21T (DNA, G4) GGGTTAGGGTTAGGGTTAGGG
Description: FRET melting. To be noted: 10 mM KCl, 90 mM LiCl; 10 mM lithium cacodylate pH 7.2; 0.2 µM G4; 1 µM ligand; no competitor.

Assay [7] deals with cKit2 (DNA, G4) GGGCGGGCGCGAGGGAGGGG
Description: G4-FID. To be noted: 100 mM KCl, 10 mM lithium cacodylate pH 7.3, thiazole orange 0.5 µM displaced.

Assay [8] relates to NRAS (RNA, G4) GGGAGGGGCGGGUCUGGG
Briefly: G4-FID. To be noted: 100 mM KCl, 10 mM lithium cacodylate pH 7.3, thiazole orange 0.5 µM displaced.

In assay [9] the test system is c-Myc22 (G14T-G23T) (DNA, G4) TGAGGGTGGGTAGGGTGGGTAA
Briefly: G4-FID. Particulars: 100 mM KCl, 10 mM lithium cacodylate pH 7.3, thiazole orange 0.5 µM displaced.

The subject of assay [10] is Biot-cMyc (DNA, G4) TGAGGGTGGGTAGGGTGGGTAA
Briefly: adapted ELISA, anti-BrdU antibody. To be noted: 100 mM KCl; 10 mM Tris-HCl pH 7.4; 250 nM ligand, oligonucleotide varied; apparent.

The subject of assay [11] is Biot-hTelo (DNA, G4) GGTTAGGGTTAGGGTTAGGGTTAGGGTTAGG
Description: adapted ELISA, anti-BrdU antibody. To be noted: 100 mM KCl; 10 mM Tris-HCl pH 7.4; 250 nM ligand, oligonucleotide varied; apparent. A general note: In an ELISA, binding on a coated surface is turned into a signal by an enzyme label.

Assay [12] deals with Biot-TERRA (RNA, G4) UUAGGGUUAGGGUUAGGGUUAGGG
Description: adapted ELISA, anti-BrdU antibody. To be noted: 100 mM KCl; 10 mM Tris-HCl pH 7.4; 250 nM ligand, oligonucleotide varied; apparent.

`C#CCCCC(=O)NCCCCNc1cc(C(=O)Nc2cc3ccccc3[n+](C)c2)nc(C(=O)Nc2cc3ccccc3[n+](C)c2)c1`: the DC50 was determined as 0.30 µM in assay [1] (0.25 µM G4); 0.31 µM in assay [2] (0.25 µM G4); 0.23 µM in assay [3] (0.25 µM G4); 0.37 µM in assay [4] (0.25 µM G4); 0.40 µM in [5] (0.25 µM G4); 0.20 µM in [7] (0.25 µM G4). Further, the DC50 in [8] (0.25 µM G4) is recorded as 0.21 µM; in assay [9] (0.25 µM G4) it was 0.31 µM. Besides, in assay [6], the binding entry is given as “yes”.
With `C[n+]1cc(NC(=O)c2cc(NCCCCNC(=O)CCCc3cn(CO[C@H]4C[C@H](n5cc(Br)c(=O)[nH]c5=O)O[C@@H]4CO)nn3)cc(C(=O)Nc3cc4ccccc4[n+](C)c3)n2)cc2ccccc21`, the DC50 in [1] (0.25 µM G4) is 1.10 µM; in [2] (0.25 µM G4), 0.42 µM; in assay [3] (0.25 µM G4) it was 0.48 µM; in assay [4] (0.25 µM G4), 0.80 µM; in assay [5] (0.25 µM G4), 0.76 µM; in [7] (0.25 µM G4), 0.38 µM. Besides, the figures for the DC50 in assay [8] (0.25 µM G4) and in assay [9] (0.25 µM G4) were 0.32 µM and 0.52 µM, respectively. The figures for the Kd in assay [10], in assay [11] and in assay [12] were 3.5 ± 0.9 nM, 9.6 ± 1.3 nM and 29.6 ± 7.8 nM, respectively.
In the case of `C[n+]1cc(NC(=O)c2cccc(C(=O)Nc3cc4ccccc4[n+](C)c3)n2)cc2ccccc21`, the DC50 in assay [1] (0.25 µM DNA) was 0.18 µM; in assay [2] (0.25 µM RNA, decimal comma), 0,25 µM; in [3] (0.25 µM DNA), 0.26 µM; in assay [4] (0.25 µM DNA) it was 0.34 µM; in assay [5] (0.25 µM DNA), 0.29 µM; in assay [7] (0.25 µM DNA) it was 0.18 µM. Also, the DC50 in assay [8] (0.25 µM RNA, decimal comma) is on record as 0,20 µM; in assay [9] (0.25 µM DNA), 0.15 µM.
